# Patent US20240383915A1, “OXAZEPINE COMPOUNDS AND USES THEREOF IN THE TREATMENT OF CANCER” (Genentech, Inc., priority 2021, published 2024)
# Where two headings read alike, the source gives them in different places.
# Legend:
# KRas(G12V) = KRas(G12V) (Homo sapiens (Human), UniProt P01116, G12V); test: KRas(G12V) GDP HTRF (BODIPY-GDP exchange TR-FRET); format: biochemical
# KRas = KRas (Homo sapiens (Human), UniProt P01116); test: KRas GDP HTRF (BODIPY-GDP exchange TR-FRET); format: biochemical
# Chain of KRas (P01116-2 other isoform, or with tags, fused parts or gaps): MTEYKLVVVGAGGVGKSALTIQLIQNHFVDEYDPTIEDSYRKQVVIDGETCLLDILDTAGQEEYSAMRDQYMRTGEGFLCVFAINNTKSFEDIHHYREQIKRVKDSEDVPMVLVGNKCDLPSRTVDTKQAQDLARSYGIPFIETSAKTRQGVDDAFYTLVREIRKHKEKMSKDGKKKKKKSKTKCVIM
# How it was run: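 Inhibition of SOS1-mediated exchange of BODIPY-GDP on KRAS G12D, started with 3 nM recombinant human SOS1 and 300 nM BODIPY-GDP and read after 60 min. TR-FRET excitation 337 nm, ratio 520/490 nm ×10,000. IC50 from 4-parameter Hill fit of normalized data.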
# SW480 cells = test: SW480 proliferation assay; format: cell-based; conditions: read-out: SW480 Prolif IC50 (G12V)
# PC-9 cells = test: PC9 proliferation assay; format: cell-based, human; conditions: read-out: PC9 Prolif IC50 (G12V)
# Chain of KRas(G12V) (P01116-2 other isoform, or with tags, fused parts or gaps G12V): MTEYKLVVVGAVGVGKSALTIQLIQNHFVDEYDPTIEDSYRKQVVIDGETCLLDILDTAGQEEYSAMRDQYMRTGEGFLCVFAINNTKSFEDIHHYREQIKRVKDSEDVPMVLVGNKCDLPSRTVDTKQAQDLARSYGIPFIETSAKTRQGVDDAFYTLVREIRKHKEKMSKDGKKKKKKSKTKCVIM
SMILES,IC50 (KRas(G12V)) [nM],IC50 (KRas) [nM],"IC50 (SW480 cells; Homo sapiens, SW480, SW480) [nM]","IC50 (PC-9 cells; Homo sapiens, PC-9, PC9) [nM]",IC50 (SW480 cells; SW480) [nM],IC50 (PC-9 cells; PC9) [nM]
"Cc1cc(N)nc(-c2c(Cl)c3c4c(nc(OC[C@@]56CCCN5C[C@H](F)C6)nc4c2F)N(C)CCO3)c1C(F)(F)F (single isomer, unassigned) [Example 41a]",1.8,11,1000,3800,,
"Cc1cc(N)nc(-c2c(Cl)c3c4c(nc(OC[C@@]56CCCN5C[C@H](F)C6)nc4c2F)N(Cc2cccnc2N)CCO3)c1C(F)(F)F (single isomer, unassigned) [Example 42b]",55,82,,,3400,7000
"Cc1cc(N)nc(-c2cc3nc(OC[C@@]45CCCN4C[C@H](F)C5)nc4c3c(c2Cl)OCCN4Cc2ccn[nH]2)c1C(F)(F)F [Example 1, 6-(4-((1H-pyrazol-5-yl)methyl)-8-chloro-2-(((2R,7aS)-2-fluorotetrahydro-1H-pyrrolizin-7a(5H)-yl)methoxy)-5,6-dihydro-4H-[1,4]oxazepino[5,6,7-de]quinazolin-9-yl)-4-methyl-5-(trifluoromethyl)pyridin-2-amine]",9,46,12000,18000,,
"Cc1cc(N)nc(-c2cc3nc(OC[C@@]45CCCN4C[C@H](F)C5)nc4c3c(c2Cl)OCCN4Cc2cn[nH]c2)c1C(F)(F)F [Example 2, 6-(4-((1H-pyrazol-4-yl)methyl)-8-chloro-2-(((2R,7aS)-2-fluorotetrahydro-1H-pyrrolizin-7a(5H)-yl)methoxy)-5,6-dihydro-4H-[1,4]oxazepino[5,6,7-de]quinazolin-9-yl)-4-methyl-5-(trifluoromethyl)pyridin-2-amine]",11,25,11000,7700,,
"Cc1cc(N)nc(-c2cc3ncnc4c3c(c2Cl)OCCN4[C@H](C)c2cncc(N)c2)c1C(F)(F)F [Example 17, (R)-6-(4-(1-(5-aminopyridin-3-yl)ethyl)-8-chloro-5,6-dihydro-4H-[1,4]oxazepino[5,6,7-de]quinazolin-9-yl)-4-methyl-5-(trifluoromethyl)pyridin-2-amine]",6.1,52,8700,17000,,
"Cc1cc(N)nc(-c2cc3ncnc4c3c(c2Cl)OCCN4[C@@H](C)c2cccnc2N)c1C(F)(F)F [Example 18, (S)-6-(4-(1-(2-aminopyridin-3-yl)ethyl)-8-chloro-5,6-dihydro-4H-[1,4]oxazepino[5,6,7-de]quinazolin-9-yl)-4-methyl-5-(trifluoromethyl)pyridin-2-amine]",35,200,20000,20000,,
"Cc1cc(N)nc(-c2cc3ncnc4c3c(c2Cl)OC[C@H](CC#N)N4Cc2cccnc2N)c1C(F)(F)F [Example 19, (S)-2-(9-(6-amino-4-methyl-3-(trifluoromethyl)pyridin-2-yl)-4-((2-aminopyridin-3-yl)methyl)-8-chloro-5,6-dihydro-4H-[1,4]oxazepino[5,6,7-de]quinazolin-5-yl)acetonitrile]",15000,200000,5700,4500,,
"Cc1cc(N)nc(-c2cc3ncnc4c3c(c2Cl)OCCN4C(c2cccnc2N)C(F)(F)F)c1C(F)(F)F (centres unmarked) [Example 20, 6-(4-(1-(2-aminopyridin-3-yl)-2,2,2-trifluoroethyl)-8-chloro-5,6-dihydro-4H-[1,4]oxazepino[5,6,7-de]quinazolin-9-yl)-4-methyl-5-(trifluoromethyl)pyridin-2-amine]",69,510,7300,8700,,
"CN1CCOc2c(Cl)c(-c3cccc4sc(N)nc34)cc3nc(OC[C@@]45CCCN4C[C@H](F)C5)nc1c23 [Example 23, 4-(8-chloro-2-(((2R,7aS)-2-fluorotetrahydro-1H-pyrrolizin-7a(5H)-yl)methoxy)-4-methyl-5,6-dihydro-4H-[1,4]oxazepino[5,6,7-de]quinazolin-9-yl)benzo[d]thiazol-2-amine]",5.1,29,5100,10000,,
"Cc1cc(N)nc(-c2cc3ncnc4c3c(c2Cl)OCCN4Cc2cncnc2N)c1C(F)(F)F [Example 26, 5-((9-(6-amino-4-methyl-3-(trifluoromethyl)pyridin-2-yl)-8-chloro-5,6-dihydro-4H-[1,4]oxazepino[5,6,7-de]quinazolin-4-yl)methyl)pyrimidin-4-amine]",53,330,9700,16000,,
"Cc1cc(N)nc(-c2cc3ncnc4c3c(c2Cl)OCCN4C(c2cccnc2N)C2CC2)c1C(F)(F)F (centres unmarked) [Example 28, 6-(4-((2-aminopyridin-3-yl)(cyclopropyl)methyl)-8-chloro-5,6-dihydro-4H-[1,4]oxazepino[5,6,7-de]quinazolin-9-yl)-4-methyl-5-(trifluoromethyl)pyridin-2-amine]",8.2,110,7800,17000,,

# Now those with a lower IC50 (KRas(G12V)), led by results:
IC50 (KRas(G12V)) [nM],IC50 (KRas) [nM],"IC50 (SW480 cells; Homo sapiens, SW480, SW480) [nM]","IC50 (PC-9 cells; Homo sapiens, PC-9, PC9) [nM]",IC50 (SW480 cells; SW480) [nM],IC50 (PC-9 cells; PC9) [nM],SMILES
1.5,9.2,1500,9000,,,"Cc1cc(N)nc(-c2cc3ncnc4c3c(c2Cl)OCCN4[C@H](C)c2cccnc2N)c1C(F)(F)F [Example 5, (R)-6-(4-(1-(2-aminopyridin-3-yl)ethyl)-8-chloro-5,6-dihydro-4H-[1,4]oxazepino[5,6,7-de]quinazolin-9-yl)-4-methyl-5-(trifluoromethyl)pyridin-2-amine]"
0.39,0.63,780,1700,,,"Cc1cc(N)nc(-c2cc3nc(OC[C@@]45CCCN4CC4(C5)OCCO4)nc4c3c(c2Cl)OCCN4Cc2cccnc2N)c1C(F)(F)F [Example 35, (S)-6-(4-((2-aminopyridin-3-yl)methyl)-8-chloro-2-((dihydro-1H,3H-spiro[pyrrolizine-2,2′-[1,3]dioxolan]-7a(5H)-yl)methoxy)-5,6-dihydro-4H-[1,4]oxazepino[5,6,7-de]quinazolin-9-yl)-4-methyl-5-(trifluoromethyl)pyridin-2-amine]"
0.3,0.25,,,85,1300,"Cc1cc(N)nc(-c2c(Cl)c3c4c(nc(OC[C@@]56CCCN5C[C@H](F)C6)nc4c2F)N(Cc2cccnc2N)CCO3)c1C(F)(F)F (single isomer, unassigned) [Example 42a]"
0.13,0.15,30,6500,,,"CC(=O)N1CCN2[C@H](COc3nc4c5c(c(Cl)c(-c6nc(N)cc(C)c6C(F)(F)F)c(F)c5n3)OCCN4[C@H](C)c3cccnc3N)CC[C@H]2C1 (atropisomer, axis not shown; (aS)) [Example 123a, 1-((6S,8aS)-6-((((R)-9-(6-amino-4-methyl-3-(trifluoromethyl)pyridin-2-yl)-4-((R)-1-(2-aminopyridin-3-yl)ethyl)-8-chloro-10-fluoro-5,6-dihydro-4H-[1,4]oxazepino[5,6,7-de]quinazolin-2-yl)oxy)methyl)hexahydropyrrolo[1,2-a]pyrazin-2(1H)-yl)ethan-1-one]"
0.12,0.218,23,3700,,,"Cc1cc(N)nc(-c2c(Cl)c3c4c(nc(OC[C@@H]5CC[C@H]6CN(S(C)(=O)=O)CCN56)nc4c2F)N([C@H](C)c2cccnc2N)CCO3)c1C(F)(F)F (atropisomer, axis not shown; (aS)) [Example 125a, 6-((R)-4-((R)-1-(2-aminopyridin-3-yl)ethyl)-8-chloro-10-fluoro-2-(((6S,8aS)-2-(methylsulfonyl)octahydropyrrolo[1,2-a]pyrazin-6-yl)methoxy)-5,6-dihydro-4H-[1,4]oxazepino[5,6,7-de]quinazolin-9-yl)-4-methyl-5-(trifluoromethyl)pyridin-2-amine]"
0.11,0.27,2.6,2300,,,"Cc1cc(N)c(F)c(-c2c(Cl)c3c4c(nc(OC[C@@]56CCCN5C[C@H](F)C6)nc4c2F)N([C@H](C)c2cccnc2N)CCO3)c1C(F)(F)F (single isomer, unassigned) [Example 73a]"
0.09,0.21,6,2900,,,"Cc1cc(N)c(F)c(-c2c(Cl)c3c4c(nc(OC[C@@]56CCCN5C[C@H](F)C6)nc4c2F)N([C@H](C)c2cccnc2N)CCO3)c1I (single isomer, unassigned) [Example 74a]"
0.08,0.23,16,7100,,,"C[C@H](c1cccnc1N)N1CCOc2c(Cl)c(-c3c(F)ccc4cnn(C)c34)c(F)c3nc(OC[C@@]45CCCN4C[C@H](F)C5)nc1c23 (single isomer, unassigned) [Example 105a]"
0.07,0.2,28,2500,,,"Cc1cc(N)nc(-c2c(Cl)c3c4c(nc(OC[C@@H]5CC[C@H]6COCCCN65)nc4c2F)N([C@H](C)c2cccnc2N)CCO3)c1C(F)(F)F (atropisomer, axis not shown; (aS)) [Example 120a, 6-((R)-4-((R)-1-(2-aminopyridin-3-yl)ethyl)-8-chloro-10-fluoro-2-(((7S,9aS)-hexahydro-1H,3H-pyrrolo[2,1-c][1,4]oxazepin-7-yl)methoxy)-5,6-dihydro-4H-[1,4]oxazepino[5,6,7-de]quinazolin-9-yl)-4-methyl-5-(trifluoromethyl)pyridin-2-amine]"
